“Also recorded” adds a separate entry of the source.
Columns and labels:
superoxide radicals = assay: Superoxide radical assay (hydroethidine-induced fluorescence) in retinal homogenates of diabetic mice; format: in vivo, C57BL/6 mice; conditions: 1 month of diabetes; 1,9-dideoxyforskolin 0.1 mg/kg daily
Protocol: Superoxide radicals were measured in retinal homogenates by measuring dihydroethidine-induced fluorescence (Georgiou et al., 2008; Chen et al., 2009). Briefly, 200 μl reaction mixtures of freshly prepared retinal homogenates (20 μg protein) containing 2.5 μM dihydroethidium and 0.05 μg/μl salmon testes DNA were placed in 96-well microplates at 37° C. for 30 min. The fluorescence was measured at an excitation of 480 nm and an emission of 610 nm. Each sample was assayed in triplicate.

GLUT1 [1] = target: T1, GLUT1 (Homo sapiens, UniProt P11166); conditions: literature statement; cited from earlier work
T1 sequence (P11166 1-492): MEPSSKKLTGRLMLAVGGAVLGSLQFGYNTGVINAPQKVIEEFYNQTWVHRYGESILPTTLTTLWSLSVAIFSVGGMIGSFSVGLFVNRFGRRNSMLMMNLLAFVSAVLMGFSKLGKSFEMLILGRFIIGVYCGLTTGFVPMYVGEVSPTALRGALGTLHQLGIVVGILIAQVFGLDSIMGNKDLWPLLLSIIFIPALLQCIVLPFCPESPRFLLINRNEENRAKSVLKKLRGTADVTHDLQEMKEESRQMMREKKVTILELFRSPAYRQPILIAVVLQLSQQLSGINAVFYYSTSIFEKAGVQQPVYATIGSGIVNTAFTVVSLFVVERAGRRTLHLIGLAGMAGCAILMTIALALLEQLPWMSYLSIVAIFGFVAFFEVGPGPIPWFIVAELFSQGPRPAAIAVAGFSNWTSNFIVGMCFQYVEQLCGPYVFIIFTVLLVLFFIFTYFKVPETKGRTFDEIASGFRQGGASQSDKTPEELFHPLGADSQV

adenylate cyclase = conditions: literature statement; cited from earlier work
GLUT1 [2] = target: T1, GLUT1; conditions: literature statement; cited from earlier work; remark: listed apart in the source
GLUT1 [3] = target: T2, GLUT1 (Mus musculus, UniProt P17809); assay: Glucose measurements in retina, brain and red blood cells (RBC) of streptozotocin-diabetic mice; format: in vivo, C57BL/6 mice; conditions: for retinal glucose levels: diabetic mice; for retinal glucose (summary statement): systemic treatment of diabetic mice, dose not given
T2 sequence (P17809 1-492): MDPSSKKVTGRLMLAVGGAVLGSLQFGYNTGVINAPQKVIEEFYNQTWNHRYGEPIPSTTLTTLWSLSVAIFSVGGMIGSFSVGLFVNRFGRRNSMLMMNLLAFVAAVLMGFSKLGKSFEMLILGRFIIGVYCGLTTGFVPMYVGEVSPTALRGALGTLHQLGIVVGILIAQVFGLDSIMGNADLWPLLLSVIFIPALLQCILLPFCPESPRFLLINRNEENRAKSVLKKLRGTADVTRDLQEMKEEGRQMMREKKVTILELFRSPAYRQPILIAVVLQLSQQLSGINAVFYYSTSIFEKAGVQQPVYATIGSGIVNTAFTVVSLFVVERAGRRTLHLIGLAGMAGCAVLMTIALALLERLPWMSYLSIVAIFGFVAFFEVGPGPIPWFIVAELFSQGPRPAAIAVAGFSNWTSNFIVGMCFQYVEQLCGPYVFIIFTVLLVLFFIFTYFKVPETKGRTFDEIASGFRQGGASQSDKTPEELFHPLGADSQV

tyrosine kinases = conditions: literature statement; by blocking the ATP binding site; cited from earlier work
[4] = mice diabetic 2 months, 1,9-dideoxyforskolin 1 mg/kg daily IP, 5 hr after last dose, vs untreated diabetics

SMILES	increase of superoxide radicals (hydroethidine-induced fluorescence) in retinal homogenates (superoxide radicals)	GLUT1 glucose transport (GLUT1 [1])	adenylate cyclase stimulation (adenylate cyclase)	binding to GLUT1 (GLUT1 [2])	retinal glucose levels (GLUT1 [3]; 1,9-dideoxyforskolin 0.1 mg/kg/day IP, 2 or 4 weeks, vs untreated diabetics)	glucose levels in RBCs (GLUT1 [3]; [4])	glucose levels in brain (GLUT1 [3]; [4])	glucose levels in retina (GLUT1 [3]; [4])	retinal glucose (summary statement) (GLUT1 [3])	retinal glucose levels (GLUT1 [3]; genistein 50 mg/kg/day IP, 4 weeks, vs untreated diabetics)	tyrosine kinase inhibition (tyrosine kinases)
C=C[C@@]1(C)CC(=O)[C@@H]2[C@@]3(C)CCCC(C)(C)[C@@H]3[C@H](O)[C@H](OC(C)=O)[C@@]2(C)O1 [1,9-dideoxyforskolin]	significantly blocked	blocks GLUT1-mediated glucose transport	lacks adenylate cyclase-stimulating activity	binds GLUT1	significantly reduced retinal glucose levels; also recorded: significant reduction in retinal glucose level	significant reduction; also recorded: decreased glucose levels	not in brain; also recorded: did not effect glucose levels	significant reduction; also recorded: decreased glucose levels	equivalent effect to that of forskolin	–	–
O=c1c(-c2ccc(O)cc2)coc2cc(O)cc(O)c12 [genistein]	–	suppresses glucose transport	–	binds to the ATP binding site of GLUT1	–	–	–	–	significantly reduced retinal glucose to the same levels seen in non-diabetics	significantly reduced retinal glucose levels; also recorded: significant reduction in retinal glucose level	inhibits tyrosine kinases
O=c1c(O)c(-c2cc(O)c(O)c(O)c2)oc2cc(O)cc(O)c12 [myricetin]	–	–	–	binds to the ATP binding site of GLUT1	–	–	–	–	–	–	–

Reference: US20140314740A1, “COMPOSITIONS AND METHODS FOR THE PREVENTION OR TREATMENT OF DIABETIC COMPLICATIONS” (The Johns Hopkins University, priority 2011, published 2014)
